Results: patent US20260306502A1, “MITOCHONDRIAL UNCOUPLERS FOR TREATMENT OF METABOLIC DISEASES AND CANCER” (Mito Biopharma, LLC, priority 2022, published 2026)
Read-outs that look alike come from different tables or passages of the source.

What was measured:
C2C12 cells = test: Mitochondrial uncoupling activity by oxygen consumption rate (OCR) assay, Seahorse, in presence of oligomycin; assay type: cell-based, mouse; conditions: for minimal effective concentration: Mus musculus, C2C12
Description: By definition, mitochondrial uncoupling is the decoupling of mitochondrial electron transport chain activity (mitochondrial oxidation) from ATP synthesis by mitochondrial ATP synthase. Technically, mitochondrial uncoupling activity is defined by the ability of a chemical compound to induce oxygen consumption of cells or isolated mitochondria in the presence of a mitochondrial ATP synthase inhibitor such as oligomycin. Accordingly, mitochondrial uncoupling activity was determined by oxygen consumption rate assay with a Seahorse XF96 or a Seahorse XF24 instrument following the vendor's instruction, using mouse myoblast C2C12 cells grown in a medium containing 10% fetal bovine serum. OCR was measured stepwise under the following conditions: first under normal growth conditions; then. OCR was measured after oligomycin was added to reach a final concentration of 2.5 μM); then OCR was measured after the compound was further added at varying concentrations. Finally, rotenone and antimycin A were added to confirm that the measurement was mitochondrial oxygen consumption (rotenone and […] mitochondrial electron transport chain inhibitors).
COCR-min the minimal concentration required for each compound to induce OCR in the presence of oligomycin, of disclosed compounds, was also determined by varying the final concentration of the compound added to the Seahorse OCR analysis experiment as described above (FIG. 2, varying testing compound concentration). Table 8 summarizes the mitochondrial uncoupling activity of disclosed compounds, as represented by COCR-min.

[1] = PO pharmacokinetic study, oral exposure (Example B3); assay type: in vivo; conditions: blood, po; for AUC at 24 h: 10 mg/kg gavage
Description: The blood concentration of the compound was then determined at 0 (pre-dosing), 5 min, 15 min, 30 min, 1 hr, 2 hr, 4 hr, 8 hr, 24 hr time points by LC-MS/MS analysis (See Tables 1 and 2, vide supra).

[2] = in the presence of oligomycin 2.5 μM, read-out: COCR-min: minimal concentration increasing OCR in the presence of oligomycin

Row | AUC at 24 h [1] [ng·h/mL] | SMILES | minimal effective concentration (C2C12 cells; [2]) [µM] | also measured
1 | 10000 to 30000 | Cl.O=C(Nc1nc2ccc(C(F)(F)F)cc2s1)c1cc(Cl)cc(CCN2CCOCC2)c1O [Compound 17, 5-chloro-2-hydroxy-3-(2-morpholinoethyl)-N-(6-(trifluoromethyl)benzo[d]thiazol-2-yl)benzamide] | < 5 | 
2 | 30000 to 60000 | Cc1cc(Cl)cc(C(=O)Nc2nc3c(CN4CCN(C)CC4)cc(C(F)(F)F)cc3s2)c1O [Example 78, 5-chloro-2-hydroxy-3-methyl-N-(4-((4-methylpiperazin-1-yl)methyl)-6-(trifluoromethyl)benzo[d]thiazol-2-yl)benzamide] | < 5 | AUC(0-t) at 24 h ([1]; 10 mg/kg): 58400 ng·h/mL
3 |  | O=C(Nc1nc2ccc(C(F)(F)F)cc2s1)c1cc(Cl)ccc1O [Compound 31 in WO 2016/081599, reference compound] |  | AUC(0-t) at 24 h ([1]; 20 mg/kg): ~2400 ng·h/mL
4 | 30000 to 60000 | COCCOCc1cc(Cl)cc(C(=O)Nc2ccc(C(F)(F)F)cc2Cl)c1O [Compound 4, 5-chloro-N-(2-chloro-4-(trifluoromethyl)phenyl)-2-hydroxy-3-((2-methoxyethoxy)methyl)benzamide] | < 5 | 
5 | > 120000 | COCCOCc1cc(Cl)cc(C(=O)Nc2nc3ccc(C(F)(F)F)cc3s2)c1O [Compound 2, 5-chloro-2-hydroxy-3-((2-methoxyethoxy)methyl)-N-(6-(trifluoromethyl)benzo[d]thiazol-2-yl)benzamide] | < 5 | AUC(0-t) at 24 h ([1]; 10 mg/kg): 485000 ng·h/mL
6 | 10000 to 30000 | COCCN(CCOC)Cc1cc(Cl)cc(C(=O)Nc2nc3c(COC)cc(C(F)(F)F)cc3s2)c1O [Compound 69, 3-((bis(2-methoxyethyl)amino)methyl)-5-chloro-2-hydroxy-N-(4-(methoxymethyl)-6-(trifluoromethyl)benzo[d]thiazol-2-yl)benzamide] | < 5 | effect on oxygen consumption rate (OCR) (C2C12 cells; in words): increase OCR in the presence of oligomycin
7 | 30000 to 60000 | COCCOCc1cc(C(F)(F)F)cc2sc(NC(=O)c3cc(Cl)cc(CN4CCCCC4)c3O)nc12 [Compound 66, 5-chloro-2-hydroxy-N-(4-((2-methoxyethoxy)methyl)-6-(trifluoromethyl)benzo[d]thiazol-2-yl)-3-(piperidin-1-ylmethyl)benzamide] | < 5 | 
8 | 10000 to 30000 | COCCN(C)Cc1cc(Cl)cc(C(=O)Nc2nc3ccc(C(F)(F)F)cc3s2)c1O [Compound 3, 5-chloro-2-hydroxy-3-(((2-methoxyethyl)(methyl)amino)methyl)-N-(6-(trifluoromethyl)benzo[d]thiazol-2-yl)benzamide] | < 5 | 
9 | 30000 to 60000 | COC1CCN(Cc2cc(Cl)cc(C(=O)Nc3nc4ccc(C(F)(F)F)cc4s3)c2O)C1 (stereo not drawn) [Compound 32, 5-chloro-2-hydroxy-3-((3-methoxypyrrolidin-1-yl)methyl)-N-(6-(trifluoromethyl)benzo[d]thiazol-2-yl)benzamide] | < 5 | 
10 | 10000 to 30000 | COc1cc(Cl)cc(C(=O)Nc2nc3ccc(C(F)(F)F)cc3s2)c1O [Example 97, 5-chloro-2-hydroxy-3-methoxy-N-(6-(trifluoromethyl)benzo[d]thiazol-2-yl)benzamide] | < 5 | 
11 |  | CN1CCN(Cc2cc(Cl)cc(C(=O)Nc3nc4ccc(C(F)(F)F)cc4s3)c2O)CC1 [Compound 28, 5-chloro-2-hydroxy-3-((4-methylpiperazin-1-yl)methyl)-N-(6-(trifluoromethyl)benzo[d]thiazol-2-yl)benzamide] | < 5 | 
12 |  | COCCOCc1cc(I)cc(C(=O)Nc2nc3ccc(C(F)(F)F)cc3s2)c1O [Compound 46, 2-hydroxy-5-iodo-3-((2-methoxyethoxy)methyl)-N-(6-(trifluoromethyl)benzo[d]thiazol-2-yl)benzamide] | < 5 | 
13 |  | O=C(Nc1nc2ccc(C(F)(F)F)cc2s1)c1cc(Cl)cc(CN2CCC(F)(F)CC2)c1O [Example 62, 5-chloro-3-((4,4-difluoropiperidin-1-yl)methyl)-2-hydroxy-N-(6-(trifluoromethyl)benzo[d]thiazol-2-yl)benzamide] | < 5 | 
14 |  | COCCOCc1cc(Cl)cc(C(=O)Nc2nc3ccc(C(F)(F)F)cc3s2)c1O [drawing 256] |  | minimal effective concentration (C2C12 cells; minimal concentration leading to OCR increase, read-out: Activity (Cmin-OCR)): 2.5 µM
15 |  | N#CC1CCN(Cc2cc(Cl)cc(C(=O)Nc3ccc(C(F)(F)F)nc3)c2O)C1 (stereo not drawn) [Compound 55, 5-chloro-3-((3-cyanopyrrolidin-1-yl)methyl)-2-hydroxy-N-(6-(trifluoromethyl)pyridin-3-yl)benzamide] | < 5 | 
16 |  | COCCOCc1cc(Cl)cc(C(=O)Nc2cnc(C(F)(F)F)cn2)c1O [Compound 6, 5-chloro-2-hydroxy-3-((2-methoxyethoxy)methyl)-N-(5-(trifluoromethyl)pyrazin-2-yl)benzamide] | 5 to 10 | 
17 |  | COCCOCc1cc(Cl)cc(C(=O)Nc2nc3ccc(F)cc3s2)c1O [Compound 8, 5-chloro-N-(6-fluorobenzo[d]thiazol-2-yl)-2-hydroxy-3-((2-methoxyethoxy)methyl)benzamide] | < 5 | 
18 |  | C[C@@H]1CN(Cc2cc(Cl)cc(C(=O)Nc3nc4c(COCCN5CCN(C)CC5)cc(C(F)(F)F)cc4s3)c2O)C[C@H](C)O1 [Compound 76, 5-chloro-3-((cis-2,6-dimethylmorpholino)methyl)-2-hydroxy-N-(4-((2-(4-methylpiperazin-1-yl)ethoxy)methyl)-6-(trifluoromethyl)benzo[d]thiazol-2-yl)benzamide] | < 5 | 
19 |  | COCCOCCN(C)Cc1cc(Cl)cc(C(=O)Nc2nc3ccc(C(F)(F)F)cc3s2)c1O [Compound 24, 5-chloro-2-hydroxy-3-(((2-(2-methoxyethoxy)ethyl)(methyl)amino)methyl)-N-(6-(trifluoromethyl)benzo[d]thiazol-2-yl)benzamide] | < 5 | 
20 |  | O=C(Nc1nc2ccc(C(F)(F)F)cc2s1)c1cc(Cl)cc(CN2CCCC2C(F)(F)F)c1O (stereo not drawn) [Compound 56, 5-chloro-2-hydroxy-N-(6-(trifluoromethyl)benzo[d]thiazol-2-yl)-3-((2-(trifluoromethyl)pyrrolidin-1-yl)methyl)benzamide] | < 5 | 
21 |  | O=C(Nc1ncc(C(F)(F)F)s1)c1cc(Cl)cc(CN2CCOCC2)c1O [Compound 51, 5-chloro-2-hydroxy-3-(morpholinomethyl)-N-(5-(trifluoromethyl)thiazol-2-yl)benzamide] | < 5 | 
22 |  | O=C(Nc1ccc(C(F)(F)F)nc1)c1cc(Cl)cc(C2CCOC2)c1O (stereo not drawn) [Example 98, 5-chloro-2-hydroxy-3-(tetrahydrofuran-3-yl)-N-(6-(trifluoromethyl)pyridin-3-yl)benzamide] | > 10 | 
23 |  | CO/N=C/c1cc(Cl)cc(C(=O)Nc2nc3ccc(C(F)(F)F)cc3s2)c1O [Compound 39, (E)-5-chloro-2-hydroxy-3-((methoxyimino)methyl)-N-(6-(trifluoromethyl)benzo[d]thiazol-2-yl)benzamide] | > 10 | 
24 |  | COCCOCc1cc(Cl)cc(C(=O)Nc2nc3ccc(OC(F)(F)F)cc3s2)c1O [Compound 5, 5-chloro-2-hydroxy-3-((2-methoxyethoxy)methyl)-N-(6-(trifluoromethoxy)benzo[d]thiazol-2-yl)benzamide] | 5 to 10 | 
25 |  | Cc1cc(Cl)cc(C(=O)Nc2nc3c(COCCO)cc(C(F)(F)F)cc3s2)c1O [Compound 88, 5-chloro-2-hydroxy-N-(4-((2-hydroxyethoxy)methyl)-6-(trifluoromethyl)benzo[d]thiazol-2-yl)-3-methylbenzamide] | 5 to 10 | 
26 |  | CC(=O)NC1CCN(Cc2cc(Cl)cc(C(=O)Nc3nc4ccc(C(F)(F)F)cc4s3)c2O)C1 (stereo not drawn) [Compound 33, 3-((3-acetamidopyrrolidin-1-yl)methyl)-5-chloro-2-hydroxy-N-(6-(trifluoromethyl)benzo[d]thiazol-2-yl)benzamide] | > 10 | 
27 |  | CC(=O)N1CCN(Cc2cc(Cl)cc(C(=O)Nc3nc4ccc(C(F)(F)F)cc4s3)c2O)CC1 [Compound 19, 3-((4-acetylpiperazin-1-yl)methyl)-5-chloro-2-hydroxy-N-(6-(trifluoromethyl)benzo[d]thiazol-2-yl)benzamide] | 5 to 10 | 
28 |  | CN(C)CCc1cc(Cl)cc(C(=O)Nc2ccc(C(F)(F)F)cc2Cl)c1O [Compound 18, 5-chloro-N-(2-chloro-4-(trifluoromethyl)phenyl)-3-(2-(dimethylamino)ethyl)-2-hydroxybenzamide] | < 5 | 
29 |  | O=C(Nc1ccc(C(F)(F)F)nc1)c1cc(Cl)cc(CN2CCOCC2)c1O [Compound 53, 5-chloro-2-hydroxy-3-(morpholinomethyl)-N-(6-(trifluoromethyl)pyridin-3-yl)benzamide] | < 5 | 
30 |  | COCCOCc1cc(Cl)cc(C(=O)Nc2ccc(C(F)(F)F)nc2)c1O [Compound 20, 5-chloro-2-hydroxy-3-((2-methoxyethoxy)methyl)-N-(6-(trifluoromethyl)pyridin-3-yl)benzamide] | 5 to 10 | 
